Laboratory results from patent US6576620B2, “Method of identifying partial adenosine A1 receptor agonists” (CV Therapeutics, Inc., priority 1999, dated 2003).
pIC50, pKi: −log10 of the molar value. Read-outs that look alike come from different tables or passages of the source.

Experiments:
Adenosine A1 receptor = assay: A1-agonist stimulated [35S]GTPγS binding to G proteins; type: biochemical; details: for GTPγS: normalized to the full agonist CPA
Procedure: At the end of the incubation, each suspension was filtered and the retained radioactivity determined as described above.

A1-AdoR = biological target: T1, A1-AdoR (Cavia porcellus, UniProt P47745); assay: 3H-CPX binding to guinea pig forebrain membranes; details: for pIC50: IC50 to reduce the binding of 3H-CPX
T1 sequence (P47745 1-326): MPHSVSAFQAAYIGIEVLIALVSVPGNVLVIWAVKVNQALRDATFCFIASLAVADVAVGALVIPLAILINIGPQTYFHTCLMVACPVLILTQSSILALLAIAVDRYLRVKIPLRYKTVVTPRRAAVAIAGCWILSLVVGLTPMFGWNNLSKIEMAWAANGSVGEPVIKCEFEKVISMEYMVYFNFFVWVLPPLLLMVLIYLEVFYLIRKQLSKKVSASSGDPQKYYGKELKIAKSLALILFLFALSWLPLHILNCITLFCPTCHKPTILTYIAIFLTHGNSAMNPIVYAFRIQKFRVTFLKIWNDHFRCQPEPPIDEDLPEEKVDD
Procedure: Membranes containing A1-AdoRs for use in radioligand binding assays were prepared from guinea pig cerebral cortex or from rat isolated epididymal adipocytes. Freshly-isolated guinea pig brain cortical tissue was homogenized in ice-cold 50 mM Tris-HCl buffer (pH 7.4) using six up and down strokes of an ice-chilled Potter-Elvejhem tissue grinder and a motor-driven teflon™ pestle. A crude membrane preparation was isolated by centrifugation of the homogenate at 15,000×g for 20 min at 4° C. The membrane pellet was resuspended in fresh Tris buffer and pelleted again by centrifugation. The final membrane pellet was suspended in Tris buffer to achieve a protein content of 1.1-1.4 mg/ml and divided into aliquots for storage at −80° C. until needed for assays. Adipocytes were isolated from 10 epididymal fat pads and suspended in a homogenization buffer (pH 7.3) containing 250 mM sucrose, 20 mM HEPES, 1 mM EDTA, 10 μg/ml leupeptin, and 5 μg/ml pepstatin. Cells were homogenized using an ice-chilled Potter-Elvehjem tissue grinder and a motor-driven teflon™ pestle. Cell membranes were separated from fat by centrifugation of the homogenate for 5 min at 1000×g at 4° C. The infranate below the fat cake was removed and placed in a centrifuge tube. Membranes were collected by centrifugation of the infranate for 30 min at 20,000×g at 4° C. Membranes were resuspended in buffer (pH 7.1 at room temperature) containing 154 mM NaCl, 10 mM MgCl2, 50 mM HEPES, 1 mM EDTA, 5 μg/ml leupeptin, 5 μg/ml pepstatin, and 5 U/ml adenosine deaminase, and stored as aliquots in liquid nitrogen until needed for assays.
The binding affinity of experimental agonists high and low affinity states of the A1-ADOR was determined. […] The presence of GTP reduces the availability of high affinity binding sites on the GPCR. Thus, the method allows for a discrimination between high and low binding affinities.
After a 3 hour incubation at room temperature. the reaction was terminated by diluting the samples with ice-cold Tris buffer and immediate collection of membranes onto glass-fiber filters (Schleicher and Schuell, Keene, N.H.) by vacuum filtration using a cell harvester (Brandel, Gaithersburg, Md.). Filters were washed quickly three times with ice-cold buffer to remove unbound radioligand. Filter discs containing trapped membranes and bound radioligand were placed in 4 ml of scintillation cocktail and radioactivity of samples was quantified using a liquid scintillation counter. […] Results of radioligand binding assays were analyzed using the Prism program from GraphPad (San Diego, Calif.).

[1] = system: guinea pig isolated heart; assay: Monophasic action potential duration, isolated heart
Procedure: Signals were considered adequate if they were stable for at least 5-10 min and the amplitudes exceeded 10 mV. The data were digitized at 2 kHz by a DT-2801A digitizing board (Data Translation, Marlboro, Mass.) and were saved for analysis using the Snapshot data acquisition program (Snapshot Storage Scope, HEM Data Corp., Southfield, Mich.). The duration of the atrial and ventricular monophasic action potentials was measured from onset of depolarization to either 50 or 90% of repolarization.

[2] = Ki for reduction of 3H-CPX binding, absence of GTP

SMILES | GTPγS (Adenosine A1 receptor; Table 1, compounds of Example 2) [%] | GTPγS (Adenosine A1 receptor; Table 2, compounds of Example 3) [%] | GTPγS (Adenosine A1 receptor; Table 3, compounds of Example 4) [%] | GTPγS (% of CPA) (Adenosine A1 receptor; Table 5) | pIC50 (A1-AdoR; absence of GTP) | pIC50 (A1-AdoR; presence of 1 mM GTP) | pKi (A1-AdoR; [2]) | pKi (A1-AdoR; Ki, high affinity sites, presence of 1 mM GTP, 2-site binding model) | Hill slope (A1-AdoR; absence of GTP) | difference of IC50 in absence and presence of 1 mM GTP (A1-AdoR; forebrain membranes) [fold] | Hill slope (A1-AdoR; presence of 1 mM GTP) | sites having a high affinity (A1-AdoR; presence of 1 mM GTP, 2-site binding model) [%] | pKi (A1-AdoR; read-out: Ki, low affinity sites, presence of 1 mM GTP, 2-site binding model) | effect on duration of ventricular or atrial monophasic action potential [1] | duration of atrial monophasic action potential at 50% of repolarization ([1]; 20 μM compound, control 41±3) [ms] | duration of atrial monophasic action potential at 90% of repolarization ([1]; 20 μM compound, control 66±4) [ms] | duration of ventricular monophasic action potential at 90% of repolarization ([1]; 20 μM compound, control 158±4) [ms] | pKi (A1-AdoR; Ki for reduction of 3H-CPX binding, presence of 1 mM GTP)
OC[C@H]1O[C@@H](n2cnc3c(NC4CCCC4)ncnc32)[C@H](O)[C@@H]1O [CPA, N^6-cyclopentyladenosine, reference compound] | 100 | 100 | 100 | 100 % of CPA | 8.60 | 7.55 | 8.77 | 7.98 | 1.2 | 11 | 0.53 | 73 | 6.05 |  |  |  |  | 
CNC(=O)OC[C@H]1OC(n2cnc3c(N[C@@H]4CCOC4)ncnc32)[C@H](O)[C@@H]1O (stereo partly drawn) [Compound 6 of Example 2, [(5-{6-[((3R)oxolan-3-yl)amino]purin-9-yl}(3 S,2R,4R)-3,4-dihydroxyoxolan-2-yl)methoxy]-N-methylcarboxamide] |  |  |  |  |  | 5.54 | 5.74 |  | 0.79 |  | 0.99 |  |  | no significant effect | 41 ± 3 | 74 ± 4 | 160 ± 7 | 5.68
